Experimental data from ChEMBL document CHEMBL1201862, “PubChem BioAssay data set” (2004).
Each block holds one compound with its values, some of them ahead of it. Active and inactive are the calls of the source.

Columns and labels:
Type in all cases: functional
[1] = target: Apoptotic protease-activating factor 1 (Homo sapiens, UniProt O14727)
[2] = target: T1, Ubiquitin-conjugating enzyme E2 N (Homo sapiens, UniProt P61088);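 further: Dose-response confirmation in a TR-FRET assay detecting UBC13-driven polyubiquitin chain formation, inhibition measured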
T1 sequence (P61088 whole entry): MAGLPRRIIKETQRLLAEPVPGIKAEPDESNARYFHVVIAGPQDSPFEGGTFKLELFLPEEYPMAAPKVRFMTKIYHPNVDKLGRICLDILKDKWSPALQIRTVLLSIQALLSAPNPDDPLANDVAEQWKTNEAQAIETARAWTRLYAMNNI

[3] = target: T2, Sentrin-specific protease 8 (Homo sapiens, UniProt Q96LD8); test: inhibition of sentrin protease 8 – biochemical, luminescence, set 2, SAR follow-up (AID 588601)
T2 sequence (Q96LD8 whole entry): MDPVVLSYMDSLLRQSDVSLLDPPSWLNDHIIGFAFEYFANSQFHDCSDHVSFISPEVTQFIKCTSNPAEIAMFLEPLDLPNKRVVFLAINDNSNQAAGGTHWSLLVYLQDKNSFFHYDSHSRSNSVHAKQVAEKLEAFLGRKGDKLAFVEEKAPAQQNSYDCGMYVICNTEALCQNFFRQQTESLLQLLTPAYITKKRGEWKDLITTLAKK

[4] = target: T3, Sentrin-specific protease 7 (Homo sapiens, UniProt Q9BQF6); test: inhibition of human SENP7 cleavage activity – biochemical, luminescence, set 2, SAR follow-up (AID 588600)
T3 sequence (Q9BQF6 whole entry): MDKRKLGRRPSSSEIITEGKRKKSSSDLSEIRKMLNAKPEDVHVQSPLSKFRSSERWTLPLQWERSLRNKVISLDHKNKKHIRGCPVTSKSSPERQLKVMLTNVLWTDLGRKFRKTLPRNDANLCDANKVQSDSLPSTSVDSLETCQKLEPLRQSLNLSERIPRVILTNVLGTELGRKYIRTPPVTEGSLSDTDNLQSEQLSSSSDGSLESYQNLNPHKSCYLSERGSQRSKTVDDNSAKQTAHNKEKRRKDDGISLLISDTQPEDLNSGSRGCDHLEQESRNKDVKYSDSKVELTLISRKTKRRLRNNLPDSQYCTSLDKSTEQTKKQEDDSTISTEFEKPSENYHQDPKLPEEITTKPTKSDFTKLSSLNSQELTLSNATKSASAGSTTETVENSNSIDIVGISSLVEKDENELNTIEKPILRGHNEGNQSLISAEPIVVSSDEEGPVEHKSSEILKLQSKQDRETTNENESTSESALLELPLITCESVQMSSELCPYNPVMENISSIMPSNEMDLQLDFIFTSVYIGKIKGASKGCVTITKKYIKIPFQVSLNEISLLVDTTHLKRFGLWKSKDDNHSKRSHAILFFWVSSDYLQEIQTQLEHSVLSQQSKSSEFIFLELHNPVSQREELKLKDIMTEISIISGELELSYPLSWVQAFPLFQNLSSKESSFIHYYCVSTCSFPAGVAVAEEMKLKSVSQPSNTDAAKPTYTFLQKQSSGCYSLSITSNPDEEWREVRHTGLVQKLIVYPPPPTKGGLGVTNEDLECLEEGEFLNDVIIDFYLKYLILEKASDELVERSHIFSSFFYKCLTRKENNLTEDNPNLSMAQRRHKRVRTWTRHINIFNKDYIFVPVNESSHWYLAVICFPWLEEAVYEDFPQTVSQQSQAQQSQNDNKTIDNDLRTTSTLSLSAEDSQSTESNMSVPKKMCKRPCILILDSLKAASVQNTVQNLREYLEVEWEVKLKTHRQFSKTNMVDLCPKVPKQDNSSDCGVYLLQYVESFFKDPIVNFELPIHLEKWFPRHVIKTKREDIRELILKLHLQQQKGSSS

[5] = target: T4, Sentrin-specific protease 6 (Homo sapiens, UniProt Q9GZR1); test: inhibition of human SENP6 catalytic domain – biochemical, luminescence, set 2, SAR follow-up (AID 588598)
T4 sequence (Q9GZR1 whole entry): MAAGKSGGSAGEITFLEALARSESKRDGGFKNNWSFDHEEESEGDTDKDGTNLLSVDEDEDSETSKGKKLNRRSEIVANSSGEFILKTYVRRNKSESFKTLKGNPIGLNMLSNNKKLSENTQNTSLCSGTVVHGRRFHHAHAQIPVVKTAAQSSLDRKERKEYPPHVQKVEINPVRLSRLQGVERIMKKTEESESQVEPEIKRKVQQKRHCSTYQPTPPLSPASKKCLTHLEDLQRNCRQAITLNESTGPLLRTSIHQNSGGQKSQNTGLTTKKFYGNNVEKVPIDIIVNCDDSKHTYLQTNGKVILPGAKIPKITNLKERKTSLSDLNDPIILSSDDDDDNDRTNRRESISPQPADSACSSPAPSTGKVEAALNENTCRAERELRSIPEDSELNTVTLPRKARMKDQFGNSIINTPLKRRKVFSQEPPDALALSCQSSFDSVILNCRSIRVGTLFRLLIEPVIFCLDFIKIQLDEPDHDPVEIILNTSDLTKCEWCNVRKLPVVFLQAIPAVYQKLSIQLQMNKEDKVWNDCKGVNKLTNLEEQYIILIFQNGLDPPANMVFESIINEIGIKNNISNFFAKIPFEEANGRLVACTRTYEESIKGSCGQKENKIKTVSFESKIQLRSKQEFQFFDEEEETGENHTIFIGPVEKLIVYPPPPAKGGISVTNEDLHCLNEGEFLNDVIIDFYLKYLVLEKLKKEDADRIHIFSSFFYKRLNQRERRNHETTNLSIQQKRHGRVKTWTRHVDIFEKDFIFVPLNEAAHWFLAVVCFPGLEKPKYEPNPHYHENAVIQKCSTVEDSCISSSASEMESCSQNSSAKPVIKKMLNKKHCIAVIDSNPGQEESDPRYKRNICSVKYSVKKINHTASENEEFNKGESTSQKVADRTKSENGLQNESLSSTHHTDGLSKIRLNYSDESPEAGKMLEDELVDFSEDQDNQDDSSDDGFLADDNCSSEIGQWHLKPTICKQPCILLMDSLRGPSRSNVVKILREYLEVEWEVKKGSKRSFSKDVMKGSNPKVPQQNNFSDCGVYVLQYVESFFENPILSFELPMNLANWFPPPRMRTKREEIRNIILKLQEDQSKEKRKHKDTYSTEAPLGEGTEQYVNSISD

Caspase-3 [6] = target: T5, Caspase-3 (Homo sapiens, UniProt P42574); test: inhibition of recombinant caspase-3 activity – biochemical, luminescence, set 2, selectivity assay for SENP protease inhibitor project, SAR follow-up (AID 588599)
T5 sequence (P42574 whole entry): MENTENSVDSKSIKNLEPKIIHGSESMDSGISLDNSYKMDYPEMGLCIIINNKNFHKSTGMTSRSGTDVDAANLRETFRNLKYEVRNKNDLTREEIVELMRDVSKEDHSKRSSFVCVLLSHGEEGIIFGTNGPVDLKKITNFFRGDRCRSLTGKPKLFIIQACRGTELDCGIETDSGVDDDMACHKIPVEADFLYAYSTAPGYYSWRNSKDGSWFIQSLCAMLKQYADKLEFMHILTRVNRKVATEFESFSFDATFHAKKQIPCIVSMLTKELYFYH

[7] = target: Multidrug resistance protein CDR1 (Candida albicans, UniProt P43071); test: Candida albicans Cdr1 pump inhibition curves – singleplex, Cherry Pick2 set, dose response (AID 623996); conditions: read-out: EC50_MICROM
[8] = target: T4, Sentrin-specific protease 6; test: SAR Analysis of small molecule inhibitors of Sentrin-specific protease 6 (SENP6) using a Luminescent assay. [Related pubchem assays (depositor defined):AID2582, AID2599]
[9] = target: T3, Sentrin-specific protease 7; test: inhibition of human SENP7 cleavage activity – biochemical, luminescence, SAR follow-up (AID 504497)
Caspase-3 [10] = target: T5, Caspase-3; test: SAR Analysis of small molecule inhibitors of Sentrin-specific proteases (SENPs) using a Caspase-3 Selectivity assay. [Related pubchem assays (depositor defined):AID2540, AID2599, AID434973, AID489001]
[11] = target: T2, Sentrin-specific protease 8; test: inhibition of human SENP8 cleavage activity – biochemical, luminescence, SAR follow-up (AID 504501)
[12] = target: T6, High affinity choline transporter 1 (Homo sapiens, UniProt Q9GZV3); test: human choline transporter potentiators, potency – cell-based, 10-point CRC, membrane potential dye, dose response (AID 602376)
T6 sequence (Q9GZV3 whole entry): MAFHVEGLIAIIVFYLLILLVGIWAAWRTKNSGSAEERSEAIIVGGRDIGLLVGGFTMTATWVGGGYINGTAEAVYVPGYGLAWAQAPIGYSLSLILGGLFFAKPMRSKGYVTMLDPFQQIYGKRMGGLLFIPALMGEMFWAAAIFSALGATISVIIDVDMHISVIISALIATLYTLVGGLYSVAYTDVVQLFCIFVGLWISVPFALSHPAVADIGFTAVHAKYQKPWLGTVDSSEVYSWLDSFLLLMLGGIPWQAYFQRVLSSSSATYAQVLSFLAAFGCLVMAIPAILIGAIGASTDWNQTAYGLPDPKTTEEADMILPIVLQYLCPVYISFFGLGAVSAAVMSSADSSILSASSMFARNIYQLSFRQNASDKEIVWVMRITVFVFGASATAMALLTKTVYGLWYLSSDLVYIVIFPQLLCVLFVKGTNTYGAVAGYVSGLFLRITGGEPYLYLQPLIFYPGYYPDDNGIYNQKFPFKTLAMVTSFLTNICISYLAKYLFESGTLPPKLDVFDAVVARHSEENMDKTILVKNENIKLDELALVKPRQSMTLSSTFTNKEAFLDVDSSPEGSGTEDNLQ

[13] = target: cAMP-dependent protein kinase catalytic subunit alpha (Homo sapiens, UniProt P17612)
[14] = target: Homeodomain-interacting protein kinase 2 (Homo sapiens, UniProt Q9H2X6);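 further: measured within a kinome-wide kinase profiling panel, HIPK2 being one panel member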
[15] = target: Dual specificity protein kinase CLK4 (Homo sapiens, UniProt Q9HAZ1)
[16] = target: Interleukin-1 receptor-associated kinase 4 (Homo sapiens, UniProt Q9NWZ3)
[17] = target: Cell division cycle 7-related protein kinase (Homo sapiens, UniProt O00311);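 further: value obtained from a kinome-wide kinase panel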
[18] = target: Serine/threonine-protein kinase pim-1 (Homo sapiens, UniProt P11309)
[19] = target: Mitogen-activated protein kinase kinase kinase kinase 4 (Homo sapiens, UniProt O95819)
[20] = target: MAP kinase-interacting serine/threonine-protein kinase 2 (Homo sapiens, UniProt Q9HBH9)
[21] = target: Glycogen synthase kinase-3 beta (Homo sapiens, UniProt P49841);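 further: value comes from a broad kinome profiling panel, with GSK3B as the panel member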
[22] = target: Glycogen synthase kinase-3 alpha (Homo sapiens, UniProt P49840);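 further: GSK3A result taken from a broad kinome-wide kinase panel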
Chain of Glycogen synthase kinase-3 alpha (P49840 whole entry): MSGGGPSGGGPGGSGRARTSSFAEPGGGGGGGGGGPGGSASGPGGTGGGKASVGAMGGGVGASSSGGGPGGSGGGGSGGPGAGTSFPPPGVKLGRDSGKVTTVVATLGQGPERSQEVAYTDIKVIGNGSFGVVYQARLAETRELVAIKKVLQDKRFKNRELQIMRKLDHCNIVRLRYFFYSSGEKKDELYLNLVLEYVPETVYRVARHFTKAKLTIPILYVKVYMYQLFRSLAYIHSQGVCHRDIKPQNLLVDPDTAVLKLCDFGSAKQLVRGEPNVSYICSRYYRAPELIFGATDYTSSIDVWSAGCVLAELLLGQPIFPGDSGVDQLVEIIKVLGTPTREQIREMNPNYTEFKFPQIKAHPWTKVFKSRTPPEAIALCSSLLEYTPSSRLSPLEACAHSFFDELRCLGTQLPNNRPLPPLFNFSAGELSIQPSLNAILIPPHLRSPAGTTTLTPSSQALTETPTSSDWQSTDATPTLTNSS

Chain of Mitogen-activated protein kinase kinase kinase kinase 4 (O95819 whole entry): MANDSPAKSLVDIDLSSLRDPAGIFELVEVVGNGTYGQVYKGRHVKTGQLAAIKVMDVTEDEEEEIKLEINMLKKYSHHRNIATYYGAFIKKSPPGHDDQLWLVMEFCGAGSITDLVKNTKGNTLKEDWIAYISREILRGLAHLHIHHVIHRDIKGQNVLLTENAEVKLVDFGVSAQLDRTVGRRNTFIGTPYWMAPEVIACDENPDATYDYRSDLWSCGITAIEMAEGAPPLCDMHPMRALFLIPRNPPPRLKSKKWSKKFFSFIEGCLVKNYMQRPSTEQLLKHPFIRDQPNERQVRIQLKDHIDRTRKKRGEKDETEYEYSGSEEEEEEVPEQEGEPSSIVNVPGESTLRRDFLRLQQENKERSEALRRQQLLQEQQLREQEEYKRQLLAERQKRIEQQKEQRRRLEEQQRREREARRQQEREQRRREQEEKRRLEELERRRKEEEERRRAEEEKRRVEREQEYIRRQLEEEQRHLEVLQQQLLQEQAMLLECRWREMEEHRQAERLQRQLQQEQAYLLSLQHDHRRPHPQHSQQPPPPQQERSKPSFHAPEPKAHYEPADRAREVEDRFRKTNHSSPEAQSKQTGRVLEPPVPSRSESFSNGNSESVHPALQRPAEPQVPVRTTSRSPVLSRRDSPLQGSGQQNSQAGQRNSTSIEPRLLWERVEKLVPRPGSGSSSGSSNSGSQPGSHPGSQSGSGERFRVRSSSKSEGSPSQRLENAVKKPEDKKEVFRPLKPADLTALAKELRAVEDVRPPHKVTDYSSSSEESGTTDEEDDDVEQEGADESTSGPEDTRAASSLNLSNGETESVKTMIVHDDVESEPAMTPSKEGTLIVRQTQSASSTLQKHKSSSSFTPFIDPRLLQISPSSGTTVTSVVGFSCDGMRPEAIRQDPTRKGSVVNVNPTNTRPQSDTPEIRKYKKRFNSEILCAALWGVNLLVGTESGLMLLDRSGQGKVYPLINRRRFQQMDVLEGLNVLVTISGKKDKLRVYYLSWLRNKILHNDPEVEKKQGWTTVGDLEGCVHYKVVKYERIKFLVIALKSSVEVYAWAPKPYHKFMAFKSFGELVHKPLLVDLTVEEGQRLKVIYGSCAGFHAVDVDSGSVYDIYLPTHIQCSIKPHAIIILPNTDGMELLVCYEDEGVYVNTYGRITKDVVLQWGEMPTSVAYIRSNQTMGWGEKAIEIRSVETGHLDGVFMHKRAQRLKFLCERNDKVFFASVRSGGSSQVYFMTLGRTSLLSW
Chain of MAP kinase-interacting serine/threonine-protein kinase 2 (Q9HBH9 whole entry): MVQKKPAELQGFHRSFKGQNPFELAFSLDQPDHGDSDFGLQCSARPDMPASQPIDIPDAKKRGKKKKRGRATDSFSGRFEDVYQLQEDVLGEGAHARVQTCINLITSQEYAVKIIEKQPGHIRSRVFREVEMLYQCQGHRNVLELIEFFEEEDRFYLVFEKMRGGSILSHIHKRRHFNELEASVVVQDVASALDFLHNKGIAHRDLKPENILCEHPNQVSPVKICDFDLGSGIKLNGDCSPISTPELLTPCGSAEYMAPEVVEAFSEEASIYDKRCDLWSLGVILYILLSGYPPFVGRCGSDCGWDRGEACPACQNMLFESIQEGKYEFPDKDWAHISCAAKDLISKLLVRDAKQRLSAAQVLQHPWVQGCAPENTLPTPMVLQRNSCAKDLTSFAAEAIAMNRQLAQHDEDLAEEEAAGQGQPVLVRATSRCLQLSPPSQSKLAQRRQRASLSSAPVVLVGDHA
Chain of Glycogen synthase kinase-3 beta (P49841 whole entry): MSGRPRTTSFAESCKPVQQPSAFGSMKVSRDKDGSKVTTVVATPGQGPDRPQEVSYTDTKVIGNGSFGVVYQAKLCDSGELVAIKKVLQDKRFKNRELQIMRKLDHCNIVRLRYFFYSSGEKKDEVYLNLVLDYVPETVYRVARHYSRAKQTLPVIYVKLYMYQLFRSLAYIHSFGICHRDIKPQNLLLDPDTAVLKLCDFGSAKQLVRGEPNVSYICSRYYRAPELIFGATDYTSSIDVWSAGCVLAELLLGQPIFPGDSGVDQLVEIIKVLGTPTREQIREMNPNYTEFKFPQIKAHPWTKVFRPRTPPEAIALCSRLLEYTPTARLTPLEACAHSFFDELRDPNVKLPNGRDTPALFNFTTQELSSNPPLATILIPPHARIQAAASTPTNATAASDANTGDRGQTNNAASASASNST
Chain of Multidrug resistance protein CDR1 (P43071 whole entry, looked up): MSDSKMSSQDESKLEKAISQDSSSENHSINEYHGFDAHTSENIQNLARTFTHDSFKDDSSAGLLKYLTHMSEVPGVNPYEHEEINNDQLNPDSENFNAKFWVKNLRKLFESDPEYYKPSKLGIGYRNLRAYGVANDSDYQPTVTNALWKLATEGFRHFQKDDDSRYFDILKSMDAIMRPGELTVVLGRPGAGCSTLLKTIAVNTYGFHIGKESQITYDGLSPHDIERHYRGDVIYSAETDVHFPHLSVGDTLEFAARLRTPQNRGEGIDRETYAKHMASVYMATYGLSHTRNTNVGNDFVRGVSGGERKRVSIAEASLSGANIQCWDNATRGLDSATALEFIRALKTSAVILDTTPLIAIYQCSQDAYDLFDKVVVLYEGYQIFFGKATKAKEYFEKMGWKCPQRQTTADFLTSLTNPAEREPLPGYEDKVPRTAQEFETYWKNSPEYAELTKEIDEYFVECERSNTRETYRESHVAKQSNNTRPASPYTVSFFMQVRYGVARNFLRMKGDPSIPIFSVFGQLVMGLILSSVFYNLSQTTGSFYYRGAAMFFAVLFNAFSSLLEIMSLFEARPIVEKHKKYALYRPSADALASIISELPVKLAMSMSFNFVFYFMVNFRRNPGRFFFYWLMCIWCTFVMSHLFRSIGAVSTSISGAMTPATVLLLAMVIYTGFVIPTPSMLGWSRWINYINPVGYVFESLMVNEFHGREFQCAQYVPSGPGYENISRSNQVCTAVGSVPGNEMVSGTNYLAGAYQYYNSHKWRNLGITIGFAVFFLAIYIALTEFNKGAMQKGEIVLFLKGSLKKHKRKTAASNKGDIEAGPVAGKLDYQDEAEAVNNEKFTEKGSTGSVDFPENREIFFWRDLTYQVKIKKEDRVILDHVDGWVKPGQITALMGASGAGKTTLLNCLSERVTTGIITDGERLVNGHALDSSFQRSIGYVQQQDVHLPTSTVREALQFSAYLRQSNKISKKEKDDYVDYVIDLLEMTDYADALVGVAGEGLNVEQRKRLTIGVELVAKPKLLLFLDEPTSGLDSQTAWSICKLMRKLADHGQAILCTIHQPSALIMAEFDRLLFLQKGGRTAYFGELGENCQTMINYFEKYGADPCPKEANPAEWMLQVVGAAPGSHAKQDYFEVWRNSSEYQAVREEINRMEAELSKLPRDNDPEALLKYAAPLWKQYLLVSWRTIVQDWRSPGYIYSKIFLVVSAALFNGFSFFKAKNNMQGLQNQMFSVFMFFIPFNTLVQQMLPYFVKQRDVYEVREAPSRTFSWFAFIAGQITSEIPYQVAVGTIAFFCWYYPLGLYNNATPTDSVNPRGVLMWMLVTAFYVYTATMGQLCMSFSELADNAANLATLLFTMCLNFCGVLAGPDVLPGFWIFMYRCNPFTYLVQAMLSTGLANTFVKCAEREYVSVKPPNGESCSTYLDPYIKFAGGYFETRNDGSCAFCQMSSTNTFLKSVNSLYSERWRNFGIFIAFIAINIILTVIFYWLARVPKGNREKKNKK
Chain of Serine/threonine-protein kinase pim-1 (P11309 whole entry): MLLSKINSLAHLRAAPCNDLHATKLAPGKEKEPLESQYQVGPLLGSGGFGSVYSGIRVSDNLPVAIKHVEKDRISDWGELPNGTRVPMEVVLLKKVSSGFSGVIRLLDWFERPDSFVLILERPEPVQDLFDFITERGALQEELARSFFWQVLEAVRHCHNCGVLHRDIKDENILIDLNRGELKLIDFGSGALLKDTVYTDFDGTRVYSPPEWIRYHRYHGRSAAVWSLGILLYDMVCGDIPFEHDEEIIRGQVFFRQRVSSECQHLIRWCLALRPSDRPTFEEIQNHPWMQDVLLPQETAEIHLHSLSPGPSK
Chain of Dual specificity protein kinase CLK4 (Q9HAZ1 whole entry): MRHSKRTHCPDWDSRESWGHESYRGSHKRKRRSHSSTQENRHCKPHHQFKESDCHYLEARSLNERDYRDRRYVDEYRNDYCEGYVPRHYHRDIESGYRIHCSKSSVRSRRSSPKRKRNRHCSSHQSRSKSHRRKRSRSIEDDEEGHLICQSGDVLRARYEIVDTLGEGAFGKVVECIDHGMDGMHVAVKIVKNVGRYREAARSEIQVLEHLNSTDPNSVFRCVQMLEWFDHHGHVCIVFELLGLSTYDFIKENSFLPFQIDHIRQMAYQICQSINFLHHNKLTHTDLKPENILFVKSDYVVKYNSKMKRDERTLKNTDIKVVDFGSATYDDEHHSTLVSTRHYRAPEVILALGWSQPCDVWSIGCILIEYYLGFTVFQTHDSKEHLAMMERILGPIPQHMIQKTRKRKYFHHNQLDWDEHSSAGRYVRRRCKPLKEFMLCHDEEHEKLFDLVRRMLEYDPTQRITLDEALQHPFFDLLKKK

SMILES: COc1ccccc1C(CNC(=O)CNC(=O)c1ccccc1Cl)N1CCCC1 (stereo not drawn)
IC50 [1]: > 100 µM (inactive) | IC50 [2]: > 20 µM (inactive)

SMILES: COc1ccc2c(c1)OC[C@H]1[C@H]2N2C(=O)c3ccc(C)cc3NC(=O)[C@@]2(C)[C@H]1c1ccccc1
EC50 [7]: 17.3 µM (active)

SMILES: CCCCNC(=O)COCc1cc(-c2ccc3c(c2)OCO3)on1
EC50 [12]: 8.04 µM (active)

The next lines start with results.

IC50 [4]: > 99 µM (inactive) | IC50 [5]: > 99 µM (inactive) | IC50 (Caspase-3 [6]): > 99 µM (inactive)
SMILES: O=C(C(=O)N1CCCc2ccccc21)c1c[nH]c2ccccc12
IC50 [3]: > 99 µM (inactive)

IC50 [8]: > 99 µM (inactive) | IC50 [9]: > 99 µM (inactive) | IC50 (Caspase-3 [10]): > 99 µM (inactive)
SMILES: CS(=O)(=O)c1ccc2nc(NC(=O)c3c(F)cccc3F)sc2c1
IC50 [11]: > 99 µM (inactive)

Ki [13]: > 7.94 µM (inactive) | Ki [14]: > 3.16 µM (inactive) | Ki [15]: 0.1 µM (active) | Ki [16]: > 10 µM (inactive) | Ki [17]: 0.158 µM (active) | Ki [18]: 7.94 µM (active) | Ki [19]: 2 µM (active) | Ki [20]: > 10 µM (inactive) | Ki [21]: 0.794 µM (active)
SMILES: NC(=O)c1ccc(-c2ccncc2)cc1NCc1cccc(F)c1

Ki [22]: 3.16 µM (active) | Ki [19]: 5.01 µM (active)
SMILES: Cc1cc(O)nc2[nH]nc(-c3cccc(-c4cccc(C#N)c4)c3)c12
